Assay results taken from US20090048269A1 (AstraZeneca AB, priority 2007, published 2009).

How the values were obtained:
human ALK5 [1] = molecular target: T1, human ALK5 (Homo sapiens, UniProt P36897); experiment: ALK5 Enzyme Assay 2 (fluorescence polarisation probe displacement); type: binding; parameters: 6His tagged human ALK5 (residues162-503) was grown and purified from insect cells; 6His; made in house; host or cells: insect cells
T1 sequence (P36897 162-503): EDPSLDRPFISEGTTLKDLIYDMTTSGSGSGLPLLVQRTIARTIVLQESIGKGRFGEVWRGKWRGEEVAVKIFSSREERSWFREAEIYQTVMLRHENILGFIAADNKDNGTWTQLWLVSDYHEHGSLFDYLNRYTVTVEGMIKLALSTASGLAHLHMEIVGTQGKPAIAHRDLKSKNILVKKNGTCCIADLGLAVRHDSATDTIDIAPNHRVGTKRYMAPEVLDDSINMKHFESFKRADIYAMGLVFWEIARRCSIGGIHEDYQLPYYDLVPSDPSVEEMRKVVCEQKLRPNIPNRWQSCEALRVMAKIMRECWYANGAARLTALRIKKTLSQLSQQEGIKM
In short: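 Recombinant ALK5 (3 μg/mL) incubated with test compound in 50 mM HEPES pH7.4, 10 mM MgCl2, 1 mM DTT, 0.01% CHAPS. Displacement of a fluorescent quinazoline-based ALK5 probe (50 nM final) in presence of 1 μM ATP read by fluorescence polarisation.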

human ALK5 [2] = molecular target: T1, human ALK5; experiment: ALK5 Enzyme Assay 1; type: biochemical; parameters: 6His tagged ALK5 protein (amino acids 162-503) expressed in insect cells; 6His; made in house; host or cells: insect cells
Experimental: This assay measures the ability of a compound to bind to and inhibit the activity of ALK5 protein in vitro. […] Assay measurements were performed in assay buffer comprising 60 mM HEPES pH 7.4, 3 mM MgCl2, 3 mM MnCl2, 3 μM Na orthovanadate, 1.2 mM DTT and 0.05% PEG2000. […] Reactions were performed in the presence of 200 μg/mL casein (Sigma-Aldrich C4765-10ML), 200 ng/mL ALK5, 0.5 μM ATP (Sigma-Aldrich A7699), 1 μCi/mL γ-33P ATP. Following addition of casein, ATP and compound, reactions were initiated by adding ALK5 enzyme and reactions run for 90 minutes. After incubation reactions were terminated by addition of 20 μL per well of 50% orthophosphoric acid. 20 minutes after addition of 70% v/v TCA, precipitated protein was transferred to GF/C 96 well plates using a Tomtec harvester with 1.5% orthophosphoric acid. […] All reactions were performed under linear kinetics.

[3] = read-out: EAA2: activity (μM) using Enzyme Assay 2
[4] = read-out: EAA: activity (μM) using Enzyme Assay 1
[5] = EAA: activity (μM) using Enzyme Assay 1

SMILES: COc1cc(Nc2cc(Oc3cccnc3-c3ccc(F)cc3)ccn2)cc(OC)c1OC [Example 52, 4-[2-(4-Fluorophenyl)pyridin-3-yl]oxy-N-(3,4,5-trimethoxy-phenyl)pyridin-2-amine]
- IC50 (human ALK5 [1]; [3]): 0.0329 µM
- IC50 (human ALK5 [2]; [4]): 0.0156 µM

SMILES: COc1cc(Nc2cc(Oc3cc(C)c(C)nc3-c3cccc(C)n3)ccn2)cc(OC)c1OC [Example 2, 4-[5,6-Dimethyl-2-(6-methylpyridin-2-yl)pyridin-3-yl]oxy-N-(3,4,5-trimethoxy-phenyl)pyridin-2-amine]
- IC50 (human ALK5 [1]; [3]): 0.0723 µM
- IC50 (human ALK5 [2]; [4]): 0.0337 µM

SMILES: COc1cc(Nc2cc(Oc3cccnc3)ccn2)cc(OC)c1OC [Example 6, 4-Pyridin-3-yloxy-N-(3,4,5-trimethoxyphenyl)pyridin-2-amine]
- IC50 (human ALK5 [1]; [3]): 1.97 µM
- IC50 (human ALK5 [2]; [4]): 5.5 µM

SMILES: Cc1cc(Oc2ccnc(Nc3cccc(C#N)c3)c2)c(-c2ccccn2)nc1C [Example 41, 3-{[4-(5,6-Dimethyl-2-pyridin-2-yl-pyridin-3-yl)oxypyridin-2-yl]-amino}-benzonitrile]
- IC50 (human ALK5 [1]; [3]): 0.0123 µM
- IC50 (human ALK5 [2]; [4]): 0.0141 µM

SMILES: Cc1cc(Oc2ccnc(Nc3ccc(S(C)(=O)=O)cc3)c2)c(-c2ccccn2)nc1C [Example 13, 4-(5,6-Dimethyl-2-pyridin-2-yl-pyridin-3-yl)oxy-N-(4-methylsulfonyl-phenyl)-pyridin-2-amine]
- IC50 (human ALK5 [1]; [3]): 0.0103 µM
- IC50 (human ALK5 [2]; [4]): 0.00853 µM

SMILES: Cc1cc(Oc2ccnc(Nc3cccc(CO)c3)c2)c(-c2ccccn2)nc1C [Example 38, (3-{[4-(5,6-Dimethyl-2-pyridin-2-yl-pyridin-3-yl)-oxypyridin-2-yl]amino}phenyl)methanol]
- IC50 (human ALK5 [1]; [3]): 0.00378 µM
- IC50 (human ALK5 [2]; [4]): 0.00977 µM

SMILES: Cc1ccc(Oc2ccnc(Nc3ccc(S(N)(=O)=O)cc3)c2)c(-c2ccccn2)n1 [Example 43, 4-{[4-(6-Methyl-2-pyridin-2-yl-pyridin-3-yl)oxypyridin-2-yl]-amino}benzene-sulfonamide]
- IC50 (human ALK5 [1]; [3]): 0.00728 µM
- IC50 (human ALK5 [2]; [4]): 0.0162 µM

SMILES: COc1cc(Nc2cc(Oc3cccnc3-c3ccccc3)ccn2)cc(OC)c1OC [Example 49, 4-(2-Phenylpyridin-3-yl)oxy-N-(3,4,5-trimethoxyphenyl)pyridin-2-amine]
- IC50 (human ALK5 [1]; [3]): 0.00804 µM
- IC50 (human ALK5 [2]; [4]): 0.00782 µM

SMILES: COc1cc(Nc2cc(Oc3ccc(C)nc3-c3cnccn3)ccn2)cc(OC)c1OC [Example 48, 4-(6-Methyl-2-pyrazin-2-yl-pyridin-3-yl)oxy-N-(3,4,5-trimethoxy-phenyl)pyridin-2-amine]
- IC50 (human ALK5 [1]; [3]): 0.0486 µM
- IC50 (human ALK5 [2]; [4]): 0.0751 µM

SMILES: Cc1cc(Oc2ccnc(Nc3cc(N4CCOCC4)cc(N4CCOCC4)c3)c2)c(-c2ccccn2)nc1C [Example 21, 4-(5,6-Dimethyl-2-pyridin-2-yl-pyridin-3-yl)oxy-N-(3,5-dimorpholin-4-ylphenyl)pyridin-2-amine]
- IC50 (human ALK5 [1]; [3]): 0.125 µM
- IC50 (human ALK5 [2]; [4]): 0.0772 µM

SMILES: COc1cccc(-c2nc(C)ccc2Oc2ccnc(Nc3cc(OC)c(OC)c(OC)c3)c2)c1 [Example 58, 4-[2-(3-Methoxy-phenyl)-6-methyl-pyridin-3-yl]oxy-N-(3,4,5-trimethoxy-phenyl)pyridin-2-amine]
- IC50 (human ALK5 [1]; [3]): 0.135 µM
- IC50 (human ALK5 [2]; [4]): 0.0187 µM

SMILES: Cc1cc(Oc2ccnc(Nc3cccc(Cl)c3)c2)c(-c2ccccn2)nc1C [Example 12, N-(3-Chlorophenyl)-4-(5,6-dimethyl-2-pyridin-2-yl-pyridin-3-yl)-oxy-pyridin-2-amine]
- IC50 (human ALK5 [1]; [3]): 0.0418 µM
- IC50 (human ALK5 [2]; [4]): 0.0073 µM

SMILES: Cc1cc(Oc2ccnc(Nc3ccncc3)c2)c(-c2ccccn2)nc1C [Example 36, 4-(5,6-Dimethyl-2-pyridin-2-yl-pyridin-3-yl)oxy-N-pyridin-4-yl-pyridin-2-amine]
- IC50 (human ALK5 [1]; [3]): 0.0515 µM
- IC50 (human ALK5 [2]; [4]): 0.0632 µM

SMILES: Cc1cc(Oc2ccnc(Nc3ccc(F)cc3)c2)c(-c2ccccn2)nc1C [Example 10, 4-(5,6-Dimethyl-2-pyridin-2-yl-pyridin-3-yl)oxy-N-(4-fluorophenyl)pyridin-2-amine]
- IC50 (human ALK5 [1]; [3]): 0.0883 µM
- IC50 (human ALK5 [2]; [4]): 0.017 µM

SMILES: Cc1cc(Oc2ccnc(Nc3ccc(S(N)(=O)=O)cc3)c2)c(-c2ccccn2)nc1C [Example 26, 4-{[4-(5,6-Dimethyl-2-pyridin-2-yl-pyridin-3-yl)oxypyridin-2-yl]-amino}benzenesulfonamide]
- IC50 (human ALK5 [1]; [3]): 0.0124 µM
- IC50 (human ALK5 [2]; [4]): 0.0219 µM

SMILES: COc1ccccc1Nc1cc(Oc2cc(C)c(C)nc2-c2ccccn2)ccn1 [Example 19, 4-(5,6-Dimethyl-2-pyridin-2-yl-pyridin-3-y1)oxy-N-(2-methoxy-phenyl)-pyridin-2-amine]
- IC50 (human ALK5 [1]): 0.00216 µM
- IC50 (human ALK5 [2]; [5]): 0.0128 µM

SMILES: COc1cc(Nc2cc(Oc3cccnc3-c3cccc(C)n3)ccn2)cc(OC)c1OC [Example 1, 4-[2-(6-Methylpyridin-2-yl)pyridin-3-yl]oxy-N-(3,4,5-trimethoxy-phenyl)pyridin-2-amine]
- IC50 (human ALK5 [1]; [3]): 0.089 µM
- IC50 (human ALK5 [2]; [4]): 0.0783 µM

SMILES: Cc1cc(Oc2ccnc(Nc3cccnc3)c2)c(-c2ccccn2)nc1C [Example 15, 4-(5,6-Dimethyl-2-pyridin-2-yl-pyridin-3-yl)oxy-N-pyridin-3-yl-pyridin-2-amine]
- IC50 (human ALK5 [1]; [3]): 0.0147 µM
- IC50 (human ALK5 [2]; [4]): 0.0129 µM

SMILES: COc1cc(Nc2cc(Oc3ccc(C)nc3-c3cccc(F)c3)ccn2)cc(OC)c1OC [Example 56, 4-[2-(3-Fluoro-phenyl)-6-methyl-pyridin-3-yl]oxy-N-(3,4,5-trimethoxy-phenyl)pyridin-2-amine]
- IC50 (human ALK5 [1]; [3]): 0.0795 µM
- IC50 (human ALK5 [2]; [4]): 0.00379 µM

SMILES: Cc1cc(Oc2ccnc(Nc3cc(F)ccc3F)c2)c(-c2ccccn2)nc1C [Example 31, N-(2,5-Difluorophenyl)-4-(5,6-dimethyl-2-pyridin-2-yl-pyridin-3-yl)-oxy-pyridin-2-amine]
- IC50 (human ALK5 [1]; [3]): 0.0312 µM
- IC50 (human ALK5 [2]; [4]): 0.0274 µM

SMILES: Cc1cc(Oc2ccnc(Nc3cccc(F)c3)c2)c(-c2ccccn2)nc1C [Example 29, N-(3-Fluorophenyl)-4-(5,6-dimethyl-2-pyridin-2-yl-pyridin-3-yl)-oxy-pyridin-2-amine]
- IC50 (human ALK5 [1]; [3]): 0.0184 µM
- IC50 (human ALK5 [2]; [4]): 0.0166 µM

SMILES: COc1cc(Nc2cc(Oc3cc(C)c(C)nc3-c3nc(C)c(C)s3)ccn2)cc(OC)c1OC [Example 4, {4-[2-(4,5-Dimethyl-thiazol-2-yl)-5,6-dimethyl-pyridin-3-yloxy]-pyridin-2-yl}-(3,4,5-trimethoxy-phenyl)-amine]
- IC50 (human ALK5 [1]; [3]): 0.056 µM
- IC50 (human ALK5 [2]; [4]): 0.00951 µM

SMILES: COc1cc(Nc2cc(Oc3ccc(C)nc3-c3ccccn3)ccn2)cc(OC)c1OC [Example 47, 4-(6-Methyl-2-pyridin-2-yl-pyridin-3-yl)oxy-N-(3,4,5-trimethoxy-phenyl)pyridin-2-amine]
- IC50 (human ALK5 [1]; [3]): 0.0108 µM
- IC50 (human ALK5 [2]; [4]): 0.0248 µM

SMILES: COc1cc(Nc2cc(Oc3cccnc3-c3ccc(NC(C)=O)cc3)ccn2)cc(OC)c1OC [Example 51, N-[4-(3-{2-[(3,4,5-Trimethoxyphenyl)amino]pyridin-4-yl}-oxypyridin-2-yl)phenyl]acetamide]
- IC50 (human ALK5 [1]; [3]): 0.0274 µM
- IC50 (human ALK5 [2]; [4]): 0.23 µM

SMILES: COc1cc(Nc2cc(Oc3ccc(C)nc3)ccn2)cc(OC)c1OC [Example 8, 4-(6-Methylpyridin-3-yl)oxy-N-(3,4,5-trimethoxyphenyl)-pyridin-2-amine]
- IC50 (human ALK5 [1]; [3]): 0.294 µM
- IC50 (human ALK5 [2]; [4]): 0.174 µM

SMILES: COc1cc(Nc2cc(Oc3ccc(C)nc3-c3cccc(Cl)c3)ccn2)cc(OC)c1OC [Example 55, 4-[2-(3-Chlorophenyl)-6-methyl-pyridin-3-yl]oxy-N-(3,4,5-trimethoxyphenyl)-pyridin-2-amine]
- IC50 (human ALK5 [1]; [3]): 0.0346 µM
- IC50 (human ALK5 [2]; [4]): 0.00929 µM

SMILES: CCc1ccc(Oc2ccnc(Nc3ccc(S(N)(=O)=O)cc3)c2)c(-c2ccccn2)n1 [Example 44, 4-{[4-(6-Ethyl-2-pyridin-2-yl-pyridin-3-yl)oxypyridin-2-yl]-amino}benzene-sulfonamide]
- IC50 (human ALK5 [1]; [3]): 0.0165 µM
- IC50 (human ALK5 [2]; [4]): 0.0161 µM

SMILES: COc1cc(Nc2cc(Oc3cccnc3Cl)ccn2)cc(OC)c1OC [Example 53, 4-(2-Chloropyridin-3-yl)oxy-N-(3,4,5-trimethoxyphenyl)pyridin-2-amine]
- IC50 (human ALK5 [1]; [3]): 0.249 µM
- IC50 (human ALK5 [2]; [4]): 0.481 µM

SMILES: COc1cc(Nc2cc(Oc3ccc(C)nc3C)ccn2)cc(OC)c1OC [Example 7, 4-(2,6-Dimethylpyridin-3-yl)oxy-N-(3,4,5-trimethoxyphenyl)-pyridin-2-amine]
- IC50 (human ALK5 [1]): 0.0349 µM
- IC50 (human ALK5 [2]; [5]): 0.0206 µM

SMILES: CCc1ccc(Oc2ccnc(Nc3cc(OC)c(OC)c(OC)c3)c2)c(-c2cccc(C)n2)n1 [Example 3, 4-[6-Ethyl-2-(6-methylpyridin-2-yl)pyridin-3-yl]oxy-N-(3,4,5-trimethoxy-phenyl)pyridin-2-amine]
- IC50 (human ALK5 [1]; [3]): 0.0459 µM
- IC50 (human ALK5 [2]; [4]): 0.0274 µM
